Test results taken from the supplement of paper PMC10307832.

What was measured:
Test in all cases: relative viability (nuclei count vs DMSO), 5 days (fraction); higher = more cells survive
[1] = compound: C1CCC(CC1)N(CCNCCC2=C3C(=C(C=C2)O)NC(=O)CO3)C(=O)CCNCCC4=CC(=C(C=C4)Cl)Cl [AZ505] + COc1cc2c(Oc3ccc(NC(=O)C4(C(=O)Nc5ccc(F)cc5)CC4)cc3F)ccnc2cc1OCCCN1CCOCC1 [Foretinib] (partner 0.25 µM)
Method in brief: (§1)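 Each reported value is a median over duplicate plates. It expresses relative viability: treated-well nuclei count divided by vehicle-well nuclei count. Lung cancer cell lines in 1536-well plates were dosed by pin tool a day after seeding, alone with one drug or with a fixed anchor-drug dose plus five library-drug doses (not always all listed) in √10 steps, and nuclei were counted after 5 days.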

[2] = compound: Cn1c(=O)n(-c2ccc(C(C)(C)C#N)cc2)c2c3cc(-c4cnc5ccccc5c4)ccc3ncc21 [Dactolisib] + COc1cccc2cc(-c3nc([C@H]4CC[C@H](C(=O)O)CC4)n4ncnc(N)c34)[nH]c12 [OSI-027] (partner 0.5 µM)
Method in brief: as §1

[3] = compound: Cn1c(=O)n(-c2ccc(C(C)(C)C#N)cc2)c2c3cc(-c4cnc5ccccc5c4)ccc3ncc21 [Dactolisib] + CS(=O)(=O)CCNCc1ccc(-c2ccc3ncnc(Nc4ccc(OCc5cccc(F)c5)c(Cl)c4)c3c2)o1 [Lapatinib] (partner 2 µM)
Method in brief: as §1

[4] = compound: Cn1c(=O)n(-c2ccc(C(C)(C)C#N)cc2)c2c3cc(-c4cnc5ccccc5c4)ccc3ncc21 [Dactolisib] + Nc1nc2[nH]cc(CCc3ccc(C(=O)N[C@@H](CCC(=O)O)C(=O)O)cc3)c2c(=O)[nH]1 [Pemetrexed] (partner 0.2 µM)
Method in brief: as §1

Row | Cell Line | relative viability ([1]; first compound 0.08 µM) | relative viability ([1]; first compound 0.253 µM) | relative viability ([1]; first compound 0.8 µM) | relative viability ([1]; first compound 2.53 µM) | relative viability ([1]; first compound 8 µM) | relative viability ([2]; first compound 0.002 µM) | relative viability ([2]; first compound 0.006325 µM) | relative viability ([2]; first compound 0.02 µM) | relative viability ([2]; first compound 0.06325 µM) | relative viability ([2]; first compound 0.2 µM) | relative viability ([3]; first compound 0.002 µM) | relative viability ([3]; first compound 0.006325 µM) | relative viability ([3]; first compound 0.02 µM) | relative viability ([3]; first compound 0.06325 µM) | relative viability ([3]; first compound 0.2 µM) | relative viability ([4]; first compound 0.002 µM) | relative viability ([4]; first compound 0.006325 µM) | relative viability ([4]; first compound 0.02 µM) | relative viability ([4]; first compound 0.06325 µM) | relative viability ([4]; first compound 0.2 µM)
1 | HOP-62 | 1.06 | 1.13 | 1.03 | 1.08 | 1.13 | 0.986 | 0.881 | 0.728 | 0.611 | 0.492 | 1.28 | 1.04 | 0.891 | 0.756 | 0.667 | 0.305 | 0.33 | 0.341 | 0.262 | 0.25
2 | LC-2-ad | 0.84 | 0.941 | 0.831 | 0.814 | 0.993 | 0.938 | 0.844 | 0.769 | 0.582 | 0.546 | 1.01 |  | 1.06 | 0.728 | 0.437 | 0.263 | 0.302 | 0.276 | 0.264 | 0.272
3 | LCLC-97TM1 | 0.874 | 0.87 | 0.888 | 0.86 | 1.02 | 0.673 | 0.564 | 0.542 | 0.717 | 0.459 | 0.926 | 0.558 | 0.842 | 0.269 | 0.317 | 0.169 | 0.158 | 0.186 | 0.192 | 0.16
4 | LK-2 | 1.28 | 1.34 | 1.18 | 1.08 | 1.68 | 0.176 | 0.205 | 0.213 | 0.207 | 0.159 | 0.804 | 0.831 | 0.807 | 0.474 | 0.235 | 0.278 | 0.263 | 0.249 | 0.117 | 0.171
5 | LOU-NH91 | 0.872 | 0.931 | 0.909 | 0.869 | 0.968 | 0.701 | 0.716 | 0.741 | 0.732 | 0.519 | 0.725 | 0.782 | 0.666 | 0.567 | 0.51 | 0.287 | 0.377 | 0.372 | 0.431 | 0.445
6 | LU99A |  | 0.987 | 0.815 | 0.78 | 0.751 | 0.294 | 0.327 | 0.332 | 0.314 | 0.276 | 0.94 | 0.828 | 0.516 | 0.336 | 0.257 | 0.152 | 0.197 | 0.2 | 0.178 | 0.18
7 | LXF-289 | 0.887 | 0.972 | 0.923 | 0.96 | 0.956 | 0.93 | 0.865 | 0.821 | 0.692 | 0.684 | 0.92 | 0.906 | 0.916 | 0.884 | 0.731 | 0.921 | 0.886 | 0.964 | 1.02 | 0.619
8 | NCI-H23 | 0.944 |  | 0.865 | 0.938 | 1.07 | 0.683 | 0.577 | 0.564 | 0.308 | 0.385 | 1.15 | 1.1 | 0.886 | 0.292 | 0.313 | 0.635 | 0.635 | 0.563 | 0.289 | 0.296
9 | NCI-H322M | 0.889 | 1 | 0.952 | 0.946 | 1.1 | 0.542 | 0.56 | 0.562 | 0.535 | 0.515 | 0.612 | 0.583 | 0.616 | 0.527 | 0.508 | 0.664 | 0.641 | 0.643 | 0.523 | 0.474
10 | NCI-H358 | 0.573 | 0.732 | 0.629 | 0.549 | 0.59 | 0.805 | 0.683 | 0.585 | 0.254 | 0.173 | 0.443 | 0.439 | 0.379 | 0.304 | 0.267 | 0.164 | 0.164 | 0.159 | 0.134 | 0.14
11 | NCI-H460 | 0.976 | 1.01 | 0.982 | 1.03 | 0.966 | 0.829 | 0.661 | 0.615 | 0.119 | 0.153 | 0.965 | 0.945 | 0.927 | 0.234 | 0.112 | 0.0654 | 0.0618 | 0.0641 | 0.0892 | 0.0591
12 | NCI-H520 | 0.625 | 0.756 | 0.76 | 0.772 | 0.745 | 0.285 | 0.303 | 0.308 | 0.204 | 0.189 | 0.888 | 0.753 | 0.655 | 0.221 | 0.128 | 0.537 | 0.506 | 0.364 | 0.213 | 0.115
13 | NCI-H596 | 0.746 | 0.897 | 0.805 | 0.897 | 0.731 | 0.694 | 0.653 | 0.692 | 0.399 | 0.315 | 1.02 | 1.06 | 0.909 | 0.574 | 0.369 | 0.457 | 0.428 | 0.513 | 0.41 | 0.401
14 | NCI-H647 | 1.22 | 1.37 | 0.963 | 1.19 | 1.12 | 0.734 | 0.863 | 0.499 | 0.144 | 0.184 | 0.912 | 0.799 | 0.646 | 0.184 | 0.169 | 0.144 | 0.172 | 0.194 | 0.154 | 0.101
15 | NCI-H650 | 1.01 | 1.14 | 1.06 | 1.08 | 1.01 | 0.509 | 0.518 | 0.641 | 0.592 | 0.372 | 0.91 | 1 | 0.691 | 0.55 | 0.452 | 1 | 0.815 | 0.897 | 0.723 | 0.47
16 | NCI-H661 | 1 | 1.02 | 0.981 | 0.984 | 0.999 | 0.701 | 0.759 | 0.652 | 0.366 | 0.339 | 0.434 | 0.475 | 0.414 | 0.257 | 0.263 | 0.823 | 0.932 | 0.854 | 0.498 | 0.515
